Measurements reported in US12433861B2, “Compositions and methods for treating reperfusion injury or hemorrhage after recanalization therapy” (GNT Pharma Co., Ltd., priority 2020, dated 2025).
Entries after “also recorded” stand apart in the source; their conditions may differ.

Assays:
[1] = system: healthy volunteers; details: cited from earlier work
[2] = system: ischemic stroke patients; details: cited from earlier work
[3] = system: acute ischemic stroke patients; details: cited from earlier work
[4] = system: adult rats; test: Abnormal behavior in adult rats after single dose; details: for % of rats showing abnormal behavior: Abnormal body position lying on side / % of rats showing abnormal behavior: Ataxia / % of rats showing abnormal behavior: Clenched paws / % of rats showing abnormal behavior: Decreased activity / % of rats showing abnormal behavior: Increased salivation / % of rats showing abnormal behavior: Repetitive jaw chewing / Number of rats showing abnormal behavior: Abnormal body position lying on side / Number of rats showing abnormal behavior: Ataxia / Number of rats showing abnormal behavior: Clenched paws / Number of rats showing abnormal behavior: Decreased activity / Number of rats showing abnormal behavior: Increased salivation / Number of rats showing abnormal behavior: Repetitive jaw chewing: 8 rats
[5] = ischemic stroke patients, selfotel (n = 281)

CCc1cccc(N(C)C(N)=Nc2cccc3ccccc23)c1 [aptiganel]
Drug-induced side effect: Agitation ([1]; Phase 1, 94 healthy volunteers): yes | Drug-induced side effect: Catatonia ([1]; Phase 1, 94 healthy volunteers): yes | Drug-induced side effect: Hallucination ([1]; Phase 1, 94 healthy volunteers): yes | Drug-induced side effect: Paranoia ([1]; Phase 1, 94 healthy volunteers): yes | side effects / psychotic symptoms in healthy humans ([1]; healthy volunteers (phase 1 study for 94)): caused hallucinations, paranoia, catatonia, euphoria, disinhibition, and psychomotor retardation; also recorded: psychotic symptoms such as hallucinations, paranoia, and catatonia

O=C(O)[C@@H]1C[C@H](CP(=O)(O)O)CCN1 (racemic) [selfotel]
adverse effects in stroke patients ([2]; 1 mg/kg): showed hallucinations, paranoia, agitation, confusion, and delirium | % of subjects showing abnormal behavior: Agitation [2, 5]: 36% | % of subjects showing abnormal behavior: Confusion [2, 5]: 16% | % of subjects showing abnormal behavior: Hallucination [2, 5]: 21% | % of subjects showing abnormal behavior: Stupor [2, 5]: 4.3% | Number of subjects showing abnormal behavior: Agitation [2, 5]: 101 | Number of subjects showing abnormal behavior: Confusion [2, 5]: 46 | Number of subjects showing abnormal behavior: Hallucination [2, 5]: 59 | Number of subjects showing abnormal behavior: Stupor [2, 5]: 12 | Subjects showing abnormal behavior: Delirium (yes/no) [2, 5]: yes | Subjects showing abnormal behavior: Paranoia (yes/no) [2, 5]: yes | psychotic symptoms ([2]; some of 281 ischemic stroke patients): revealed psychotic symptoms such as hallucination, paranoia, and delirium

rt-PA: recombinant tissue plasminogen activator, intravenous thrombolytic drug
increase of intracranial hemorrhagic complication ([3]; intravenous administration, acute ischemic stroke): ~6.4% | cerebral arterial recanalization ([3]; intravenous, depending upon size and types of the occluded vessel): 4-32%

C[C@]12N[C@H](Cc3ccccc31)c1ccccc12 [MK-801]
% of rats showing abnormal behavior: Abnormal body position lying on side ([4]; 1 mg/kg (IP), female): 25% | % of rats showing abnormal behavior: Ataxia ([4]; 1 mg/kg (IP), female): 75% | % of rats showing abnormal behavior: Clenched paws ([4]; 1 mg/kg (IP), female): 88% | % of rats showing abnormal behavior: Decreased activity ([4]; 1 mg/kg (IP), female): 100% | % of rats showing abnormal behavior: Increased salivation ([4]; 1 mg/kg (IP), female): 25% | % of rats showing abnormal behavior: Repetitive jaw chewing ([4]; 1 mg/kg (IP), female): 50% | Number of rats showing abnormal behavior: Abnormal body position lying on side ([4]; 1 mg/kg (IP), female): 2 | Number of rats showing abnormal behavior: Ataxia ([4]; 1 mg/kg (IP), female): 6 | Number of rats showing abnormal behavior: Clenched paws ([4]; 1 mg/kg (IP), female): 7 | Number of rats showing abnormal behavior: Decreased activity ([4]; 1 mg/kg (IP), female): 8 | Number of rats showing abnormal behavior: Increased salivation ([4]; 1 mg/kg (IP), female): 2 | Number of rats showing abnormal behavior: Repetitive jaw chewing ([4]; 1 mg/kg (IP), female): 4 | % of rats showing abnormal behavior: Abnormal body position lying on side ([4]; 10 mg/kg (IP), male): 13% | % of rats showing abnormal behavior: Ataxia ([4]; 10 mg/kg (IP), male): 38% | % of rats showing abnormal behavior: Clenched paws ([4]; 10 mg/kg (IP), male): 50% | % of rats showing abnormal behavior: Decreased activity ([4]; 10 mg/kg (IP), male): 100% | % of rats showing abnormal behavior: Increased salivation ([4]; 10 mg/kg (IP), male): 50% | % of rats showing abnormal behavior: Repetitive jaw chewing ([4]; 10 mg/kg (IP), male): 38% | Number of rats showing abnormal behavior: Abnormal body position lying on side ([4]; 10 mg/kg (IP), male): 1 | Number of rats showing abnormal behavior: Ataxia ([4]; 10 mg/kg (IP), male): 3 | Number of rats showing abnormal behavior: Clenched paws ([4]; 10 mg/kg (IP), male): 5 | Number of rats showing abnormal behavior: Decreased activity ([4]; 10 mg/kg (IP), male): 4 | Number of rats showing abnormal behavior: Increased salivation ([4]; 10 mg/kg (IP), male): 5 | Number of rats showing abnormal behavior: Repetitive jaw chewing ([4]; 10 mg/kg (IP), male): 3 | abnormal behaviors ([4]; male and female rats, 1 or 10 mg/kg (IP)): produced abnormal behaviors including ataxia and decreased activity
